{"source": "patent US11779659B2", "about": "“RNA constructs and uses thereof” (priority 2020, dated 2023)", "key": {"[1]": {"assay": "LNP formulation screening: physical characteristics", "format": "physicochemical", "conditions": "LNP with surrogate RNA coding for luciferase", "protocol": "(§1) An exemplary LNP delivery system was developed to effectively and safely deliver therapeutic nucleic acids into the cytosol of various cell types after local administration in vivo. The early formulation work was performed with several promising LNP formulations and surrogate RNA coding for luciferase. The aim of the experiments was to correlate the effect of different ionizable cationic lipids on the efficacy of RNA delivery by LNPs in vivo. Formulations were compared in terms of RNA encapsulation efficiency, apparent pKa, LNP size and polydispersity."}, "[2]": {"system": "liver", "assay": "in vivo screening of LNP with luciferase (Luc) RNA, intravenous administration", "protocol": "as §1\nBased on this the ALC-0315/DSPC/CHOL/ALC-0159 prototype was submitted for in vivo screening. The results presented in FIG. 16 summarize the in vivo testing of two independent pilot batches using luciferase (Luc) RNA.\nThe formulation screening procedure described above involves intravenous administration resulting in delivery primarily to the liver. The mechanism of LNP uptake into hepatocytes is driven by binding of endogenous apolipoproteins to the LNP followed by receptor-mediated endocytosis e.g. through low density lipoprotein receptors. […] Luc expression was monitored at 4, 24, 72 and 96 hours post administration (FIG. 17)."}}}
{"smiles": "CCCCCCCCC(CCCCCC)C(=O)OCCCCCCN(CCCCO)CCCCCCOC(=O)C(CCCCCC)CCCCCCCC", "note": "(centres unmarked) [ALC-0315, ((4-hydroxybutyl)azanediyl)bis(hexane-6,1-diyl)bis(2-hexyldecanoate)]", "values": [{"measurement": "physical characteristics regarding particle size, homogeneity, and RNA encapsulation efficiency", "setting": "[1]", "value": "suitable"}, {"measurement": "potency as cationic lipid", "setting": "[2]", "value": "highly potent"}]}
